Laboratory results from patent US7033829B2, “Method to inhibit cell growth using oligonucleotides” (Trustees of Boston University, priority 2000, dated 2006).
Oligonucleotides are written 5' to 3', each unit as a sugar letter and its base; * is a phosphorothioate linkage, no mark a phosphodiester; rarer units and linkages stand in square brackets, end groups in braces. Plain capitals give the bases only. d = 2'-deoxy (DNA); {P} = phosphate

Columns and labels:
IL-10 = IL-10 mRNA (RT-PCR) and protein (ELISA) in keratinocytes; assay type: cell-based, human
Description: The immunomodulatory effect of pTpT was tested in vitro using human keratinocytes. Duplicate cultures of primary human keratinocytes were treated with pTpT, diluent or UVB irradiation (200 J/m^2) or sham irradiation. Cells were collected at various times after treatment and analyzed for IL-10 protein by ELISA and for IL-10 mRNA by RT-PCR. An increase in IL-10 mRNA was detected after 6 hours in irradiated cells and after 48 hours in pTpT treated cells. An increase in IL-10 protein of 18 pg/ml was detected 24 hours after irradiation and 15±2 pg/ml 72 hours after treatment with pTpT. […] In the allogenic MLR, T cell activation is measured as lymphocyte proliferation, measured by ^3H-thymidine incorporation. IL-10 activity of culture medium from the 72 hour pTpT sample was measured by addition of the >10 kD components (containing the 18 kD IL-10 protein). […] Thus, like UVB irradiation, pTpT induces IL-10 in human keratinocytes which is likely to cooperate with TNFα to inhibit contact hypersensitivity in pTpT treated skin.

[1] = system: Cu/Zn superoxide dismutase; assay: Cu/Zn superoxide dismutase mRNA in fibroblasts; assay type: cell-based; settings: 48 and 72 hours after treatment
[2] = system: serine 15-phosphorylated p53, total p53, E2F1; assay: Western blot of p53 serine 15 phosphorylation and E2F1 in normal control fibroblasts; assay type: cell-based, human; settings: 40 μM
Description: (§1) Because the serine 15 site on p53 is known to be phosphorylated in an ATM-dependent manner after exposure to ionizing radiation (IR), we wished to examine the role of ATM in E2F1 induction and p53 serine 15 phosphorylation in response to the 11 mer-1. Fibroblasts from a patient with ataxia telangiectasia (AT) known to lack functional ATM protein, and age-matched normal control fibroblasts (N) were treated with either diluent, 40 μM 11mer-1, sham irradiation or IR (10 Gy). Cells were collected 3 hours (sham or IR) or 48 hours (diluent, 11mer-1) for western blot analysis to detect serine 15-phosphorylated p53 and total p53. In normal fibroblasts, the 11mer-1 induced a 10–15 fold increase in the level p53 phosphorylation on serine 15 compared to diluent-treated controls.

[3] = system: serine 15-phosphorylated p53, E2F1 (cells lacking functional ATM); assay: Western blot of p53 serine 15 phosphorylation and E2F1 in AT fibroblasts; assay type: cell-based, human; settings: 40 μM; 48 hours
Description: as §1

telomere 3′ overhang = assay: 3′ overhang assay in fibroblasts; assay type: cell-based, human; settings: 40 μM; up to 7 days

Row | Substance | increase in IL-10 protein (IL-10; 72 hours after treatment) | time after which an increase in IL-10 mRNA was detected (IL-10; primary human keratinocytes) | increase of Cu/Zn superoxide dismutase mRNA levels [1] | E2F1 levels [2] | increase in p53 phosphorylation on serine 15 compared to diluent ([2]; 48 hours) | level of total p53 ([2]; young adult donor, 48 hours) | increase in p53 phosphorylation on serine 15 [3] | degradation of the telomere 3′ overhang (telomere 3′ overhang)
1 | thymidine dinucleotide [pTpT] | 15 ± 2 pg/mL | 48 h | greater than 3 fold |  |  |  |  | 
2 | pGTTAGGGTTAG (DNA {P}-dGdTdTdAdGdGdGdTdTdAdG) [SEQ ID NO: 5] |  |  |  | induced E2F1 levels | 10–15 fold | minimally induced | < 50% | did not result in degradation of the telomere 3′ overhang
